The results in this text go back to patent US6469010B1, “Medicament for the alleviation or treatment of symptom derived from the ischemic disease and compound useful thereof” (Suntory Limited, priority 1995, dated 2002).

The test system of one series is DBA/2N mice. Kind of series: Audiogenic seizure suppressing action. Conditions: Mus musculus, ip, 20 min; compound 10 mg/kg, i.p.; audio stimulus after 20 minutes; suppression of average seizure score; read-out: Antiseizure action (suppression rate %). It counts as in vivo. As for the experimental part: Audiogenic Seizure Suppressing Action
The audiogenic seizure suppressing action of the compounds was evaluated by the method of Sarro et al. [G. B. De Sarro et al.; Br. J. Pharmacol., 93, 247 (1988)]. That is, DBA/2N mice (male, 3 weeks) were administered with the compound dissolved in 10% 2-hydroxypropyl-β-cyclodextrin intraperitoneally. After 20 minutes, a supersonic washer was used to apply audio stimulus of at least 90 dB for one minute. The wild running (WR), clonic seizures (clonus), tonic seizures (tonus), and respiratory arrest (RA) were evaluated. The seizure suppressing action was evaluated from the rate or suppression of the average value of the seizure score found from 0=no response, 1=WR, 2=clonus, 3=tonus, and 4=RA.

A further series relates to Na+ channel. Briefly: Veratridine-induced sodium channel activity inhibiting action (membrane potential of synaptosomes, Rhodamine 6G). It counts as biochemical, Wistar rats. Particulars: 0.1 μM of compound; rat brain synaptosomes, veratridine-induced depolarization. As for the experimental part:
Veratridine-induced Sodium Channel Activity Inhibiting Action
The membrane potential of the synaptosomes prepared from the brain membrane of Wistar rats (male, 10 to 12 weeks old) was measured by the method of Aiuchi et al. [T. Aiuchi et al: Biochimi. Biophys. Acta.

The next series deals with T1, Dopamine D2 receptor (Rattus norvegicus, UniProt P61169).
T1 construct: membrane fraction prepared from the striatum of Wister male rats; from tissue; host or cells: rat striatum membrane fraction
T1 sequence (P61169 whole entry): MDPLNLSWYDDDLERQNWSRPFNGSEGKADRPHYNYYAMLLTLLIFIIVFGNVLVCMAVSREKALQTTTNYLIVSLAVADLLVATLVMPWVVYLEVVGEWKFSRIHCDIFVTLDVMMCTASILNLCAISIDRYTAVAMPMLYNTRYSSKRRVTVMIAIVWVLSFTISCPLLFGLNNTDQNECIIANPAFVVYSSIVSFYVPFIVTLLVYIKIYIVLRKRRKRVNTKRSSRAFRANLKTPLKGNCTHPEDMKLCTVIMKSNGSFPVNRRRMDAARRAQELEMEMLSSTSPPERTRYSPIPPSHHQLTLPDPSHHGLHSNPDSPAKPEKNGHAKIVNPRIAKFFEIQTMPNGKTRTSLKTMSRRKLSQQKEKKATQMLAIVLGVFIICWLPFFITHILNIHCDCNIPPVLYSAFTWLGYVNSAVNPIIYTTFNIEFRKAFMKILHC
Briefly: Dopamine D2 receptor blocking action ([3H]raclopride binding, striatum membrane fraction). More on the design: species or system Wister male rats. Conditions: 1.0 nM [3H]raclopride, 25° C., one hour. As for the experimental part:
Dopamine D2 Receptor Blocking Action
57 μl of the membrane fraction prepared from the striatum of Wister male rats,(6 weeks old) was incubated in a buffer at 25° C. for one hour along with the compound and 1.0 nM [^3H) raclopride. A GF/C glass filter (0.1% polyethylene imine treatment) was used for separation of the B and F, then the radioactivity was measured by a beta plate and the effect of the compound was evaluated.

A short description of the next series: Acute toxicity test. Conditions: male, mouse, in vivo, iv, ddY mice, death rate up to 24 hours after administration. As for the experimental part:
Medicine was intravenously administered to ddY mice (male, 6 weeks old). The 50 percent lethal dosage LD50 of the acute toxicity was calculated by an ordinary method from the death rate up to 24 hours after administration.

In the next series the test system is T-type Ca2+ channel. Kind of series: T-type calcium channel inhibiting action (whole-cell patch clamp, hippocampal CA1 pyramidal cells). It counts as cell-based, Wistar rats. Particulars: rat hippocampal CA1 pyramidal cells; suppression of peak current after one minute of application. As for the experimental part: T-Type Calcium Channel Inhibiting Action
The hippocampal CA1 pyramidal cells were isolated from Wistar rats (female, 1 week old) in accordance with the method of Takahashi et al. K. Takahashi et al.; J Pharmacol. Exp; Ther., 256, 169 (1991)] and the T-type calcium current under conditions of a fixed membrane potential was measured using the whole-cell configuration of the pach clamp technique. The effects of the compounds were evaluated from the rate of suppression of the peak current after one minute of application using the concentration clamp method.
On the technique in general: In patch-clamp work, channel activity is measured electrically.

On to `Fc1ccc(Cc2ccc(C3CCN(C/C=C/c4ccccc4)CC3)cc2)cc1` [Compound 32, (E)-4-[4-(4-fluorophenyl)methylphenyl]-1-(3-phenyl-2-propenyl)piperidine], for which, in the series on DBA/2N mice, the inhibition in vivo at 10 mg/kg came to 94%. For the same compound, the “Antiveratridine action (inhibiting rate %)” value with Na+ channel is on record as 33.3%. The IC50 stood at 3.36 µM at Dopamine D2 receptor and 0.6 µM in the series on T-type Ca2+ channel. In “Acute toxicity test”, this compound came in with an LD50 at 24 h of 32.9 mg/kg.

On to `Fc1ccc(Cc2ccc(N3CCN(C/C=C/c4ccccc4)CC3)cc2)cc1` [Compound 47], for which the inhibition in vivo at 10 mg/kg in the series on DBA/2N mice came to 64.1%. Besides, in the series with Na+ channel, the “Antiveratridine action (inhibiting rate %)” value amounted to 22.9%. In addition, the IC50 at Dopamine D2 receptor was determined as 3.96 µM; in the series with T-type Ca2+ channel, 2.7 µM. This compound also returned an LD50 at 24 h in “Acute toxicity test” of 43.2 mg/kg.

By IC50 is commonly meant the concentration that gives 50% inhibition. Broadly, the LD50 is the dose at which mortality reaches 50%.
